Toxic doses and inconclusive results are not listed. Rule as the data show it: active = T/C of 150% or more; inactive = T/C below 125%.
System: L1210 leukemia ip in BDF1 mice, survival T/C
Test: NCI In Vivo Anticancer Drug Screen. Data for tumor model L1210 Leukemia (intraperitoneal) in B6D2F1 (BDF1) mice
Details: endpoint: mean survival time, higher = longer survival
Outline: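 Antitumor effect is assessed in tumor-bearing animals. Survival in the compound arm is compared with a vehicle-dosed control arm and expressed as their quotient.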

[1] = dose: 25.0 mg/kg/injection, schedule: Q01DX009 (ip), vehicle: saline
[2] = dose: 50.0 mg/kg/injection, schedule: Q01DX009 (ip), vehicle: saline
[3] = dose: 100.0 mg/kg/injection, schedule: Q04DX003 (ip), vehicle: saline
[4] = dose: 100.0 mg/kg/injection, schedule: Q04DX002 (ip), vehicle: Klucel (hydroxypropylcellulose) (HPC)
[5] = dose: 200.0 mg/kg/injection, schedule: Q04DX002 (ip), vehicle: Klucel (hydroxypropylcellulose) (HPC)
[6] = dose: 400.0 mg/kg/injection, schedule: Q04DX002 (ip), vehicle: Klucel (hydroxypropylcellulose) (HPC)
[7] = dose: 12.5 mg/kg/injection, schedule: Q01DX009 (ip), vehicle: saline
[8] = dose: 100.0 mg/kg/injection, schedule: Q04DX003 (ip), vehicle: Klucel (hydroxypropylcellulose) (HPC)
[9] = dose: 200.0 mg/kg/injection, schedule: Q04DX003 (ip), vehicle: Klucel (hydroxypropylcellulose) (HPC)
[10] = dose: 400.0 mg/kg/injection, schedule: Q04DX003 (ip), vehicle: Klucel (hydroxypropylcellulose) (HPC)
[11] = dose: 200.0 mg/kg/injection, schedule: Q04DX003 (ip), vehicle: saline
[12] = dose: 100.0 mg/kg/injection, schedule: Q04DX003 (ip), vehicle: saline with Tween-80
[13] = dose: 200.0 mg/kg/injection, schedule: Q04DX003 (ip), vehicle: saline with Tween-80
[14] = dose: 400.0 mg/kg/injection, schedule: Q04DX003 (ip), vehicle: saline with Tween-80
[15] = dose: 100.0 mg/kg/injection, schedule: Q01DX009 (ip), vehicle: saline with Tween-80
[16] = dose: 50.0 mg/kg/injection, schedule: Q04DX003 (ip), vehicle: Klucel (hydroxypropylcellulose) (HPC)
[17] = dose: 100.0 mg/kg/injection, schedule: Q01DX001 (ip), vehicle: saline
[18] = dose: 200.0 mg/kg/injection, schedule: Q01DX001 (ip), vehicle: saline
[19] = dose: 400.0 mg/kg/injection, schedule: Q01DX001 (ip), vehicle: saline
[20] = dose: 400.0 mg/kg/injection, schedule: Q04DX003 (ip), vehicle: saline

Measured: T/C

CC(C)N(CCCOC(=O)c1ccc(N)cc1)C(C)C
inactive: [1] 95 % of control | [2] 109 % of control | dose: 100.0 mg/kg/injection, schedule: Q01DX009 (ip), vehicle: saline 106 % of control | [3] 105 % of control

CCCCCCCCCCCCCCCCOc1ccc(F)cc1F
inactive: [4] 118 % of control | [5] 96 % of control | [6] 96 % of control

C[n+]1cc2ccccc2c2ccccc21
inactive: dose: 6.25 mg/kg/injection, schedule: Q01DX009 (ip), vehicle: water 104 % of control | [7] 92 % of control | dose: 12.5 mg/kg/injection, schedule: Q01DX009 (ip), vehicle: water 120 % of control | dose: 12.5 mg/kg/injection, schedule: Q04DX003 (ip), vehicle: saline 101 % of control | dose: 12.5 mg/kg/injection, schedule: Q04DX003 (ip), vehicle: water 98 % of control | [1] 112 % of control | dose: 25.0 mg/kg/injection, schedule: Q01DX009 (ip), vehicle: water 115 % of control | dose: 25.0 mg/kg/injection, schedule: Q04DX003 (ip), vehicle: saline 107 % of control | dose: 25.0 mg/kg/injection, schedule: Q04DX003 (ip), vehicle: water 107 % of control | [2] 95 % of control | dose: 50.0 mg/kg/injection, schedule: Q01DX009 (ip), vehicle: water 93 % of control | dose: 50.0 mg/kg/injection, schedule: Q04DX003 (ip), vehicle: saline 107 % of control

CN(C)c1ccc(C=O)cc1Br
inactive: dose: 100.0 mg/kg/injection, schedule: Q01DX009 (ip), vehicle: Klucel (hydroxypropylcellulose) (HPC) 98 % of control | [8] 100 % of control | dose: 200.0 mg/kg/injection, schedule: Q01DX009 (ip), vehicle: Klucel (hydroxypropylcellulose) (HPC) 96 % of control | [9] 103 % of control | dose: 400.0 mg/kg/injection, schedule: Q01DX009 (ip), vehicle: Klucel (hydroxypropylcellulose) (HPC) 96 % of control | [10] 101 % of control

OCCCOc1cccc(Cl)c1
inactive: dose: 75.0 mg/kg/injection, schedule: Q04DX002 (ip), vehicle: Klucel (hydroxypropylcellulose) (HPC) 105 % of control | dose: 150.0 mg/kg/injection, schedule: Q04DX002 (ip), vehicle: Klucel (hydroxypropylcellulose) (HPC) 108 % of control | dose: 300.0 mg/kg/injection, schedule: Q04DX002 (ip), vehicle: Klucel (hydroxypropylcellulose) (HPC) 105 % of control

Cc1ncc(C)c(=O)[nH]1
inactive: dose: 44.0 mg/kg/injection, schedule: Q01DX Z (ip), vehicle: saline 100 % of control | dose: 67.0 mg/kg/injection, schedule: Q01DX Z (ip), vehicle: saline 105 % of control | dose: 100.0 mg/kg/injection, schedule: Q01DX Z (ip), vehicle: saline 105 % of control | [3] 93 % of control | dose: 150.0 mg/kg/injection, schedule: Q01DX Z (ip), vehicle: saline 91 % of control | [11] 96 % of control

CN1C2CCC1C(=O)N(Cc1ccccc1)C2=O
inactive: [12] 102 % of control | [13] 93 % of control | [14] 101 % of control

O=C(O)CC1(C(=O)O)CC2(Cl)C(Cl)=C(Cl)C1(Cl)C2(Cl)Cl (stereo unspecified)
inactive: [12] 107 % of control | [13] 112 % of control

COC1CN(C(C)(C)C)C1
inactive: [3] 103 % of control

CC(=O)c1ccccc1OCC(O)CN1CCN(c2ccccc2)CC1 (stereo unspecified)
inactive: dose: 25.0 mg/kg/injection, schedule: Q01DX009 (ip), vehicle: saline with Tween-80 94 % of control | dose: 25.0 mg/kg/injection, schedule: Q04DX003 (ip), vehicle: saline with Tween-80 100 % of control | dose: 50.0 mg/kg/injection, schedule: Q01DX009 (ip), vehicle: saline with Tween-80 101 % of control | dose: 50.0 mg/kg/injection, schedule: Q04DX003 (ip), vehicle: saline with Tween-80 103 % of control | [15] 101 % of control | [12] 97 % of control

CC(=O)Nc1ccc(C)c(NC(C)=O)c1
inactive: [8] 96 % of control | [9] 96 % of control | [10] 96 % of control

CCN(CC)CCN1C(=O)C2CCCCC2C1=O (stereo unspecified)
inactive: [12] 101 % of control | [13] 101 % of control | [14] 97 % of control

C[N+](C)(C)CC1(COC(=O)C(O)(c2ccccc2)c2ccccc2)CCC1
inactive: dose: 12.0 mg/kg/injection, schedule: Q01DX001 (ip), vehicle: Klucel (hydroxypropylcellulose) (HPC) 100 % of control | dose: 12.0 mg/kg/injection, schedule: Q04DX003 (ip), vehicle: Klucel (hydroxypropylcellulose) (HPC) 94 % of control | dose: 25.0 mg/kg/injection, schedule: Q01DX001 (ip), vehicle: Klucel (hydroxypropylcellulose) (HPC) 98 % of control | dose: 25.0 mg/kg/injection, schedule: Q04DX003 (ip), vehicle: Klucel (hydroxypropylcellulose) (HPC) 86 % of control | dose: 50.0 mg/kg/injection, schedule: Q01DX001 (ip), vehicle: Klucel (hydroxypropylcellulose) (HPC) 96 % of control | [16] 86 % of control

c1ccc2c(c1)ncc1cccn12
inactive: [17] 103 % of control | [18] 103 % of control | [19] 103 % of control

Cc1ccc(S(=O)(=O)/C=C\S(=O)(=O)c2ccc(C)cc2)cc1
inactive: [7] 98 % of control | [1] 105 % of control | dose: 25.0 mg/kg/injection, schedule: Q04DX003 (ip), vehicle: acetone 92 % of control | [2] 86 % of control | dose: 50.0 mg/kg/injection, schedule: Q04DX003 (ip), vehicle: acetone 100 % of control | dose: 100.0 mg/kg/injection, schedule: Q01DX001 (ip), vehicle: acetone 90 % of control

CC1(C)Cc2ccccc2C(c2nccc3ccccc23)=N1
inactive: [8] 106 % of control | [9] 118 % of control | [10] 102 % of control

Cn1c(=O)c2c(ncn2CCSc2nnnc3ccccc23)n(C)c1=O
inactive: [3] 98 % of control | [11] 93 % of control | [20] 94 % of control

O=C(O)C1CC/C=C\CCC1 (stereo unspecified)
inactive: dose: 100.0 mg/kg/injection, schedule: Q01DX009 (sc), vehicle: olive oil, sesame oil, peanut oil 99 % of control | dose: 100.0 mg/kg/injection, schedule: Q04DX003 (sc), vehicle: olive oil, sesame oil, peanut oil 109 % of control | dose: 200.0 mg/kg/injection, schedule: Q01DX009 (sc), vehicle: olive oil, sesame oil, peanut oil 89 % of control | dose: 200.0 mg/kg/injection, schedule: Q04DX003 (sc), vehicle: olive oil, sesame oil, peanut oil 106 % of control | dose: 400.0 mg/kg/injection, schedule: Q01DX009 (sc), vehicle: olive oil, sesame oil, peanut oil 88 % of control | dose: 400.0 mg/kg/injection, schedule: Q04DX003 (sc), vehicle: olive oil, sesame oil, peanut oil 97 % of control

O=C(Nc1cccc(Cl)c1)Nc1cccc(Br)c1
inactive: [4] 96 % of control | [5] 88 % of control | [6] 118 % of control

CC(C)c1ccc(C2(C)CCCCC2=O)cc1 (stereo unspecified)
inactive: dose: 100.0 mg/kg/injection, schedule: Q01DX001 (ip), vehicle: other 101 % of control | dose: 200.0 mg/kg/injection, schedule: Q01DX001 (ip), vehicle: other 103 % of control | dose: 400.0 mg/kg/injection, schedule: Q01DX001 (ip), vehicle: other 93 % of control

CC(=O)N(C)c1ccc(NC(=O)Nc2cccc(C(F)(F)F)c2)cc1
inactive: [15] 94 % of control | dose: 200.0 mg/kg/injection, schedule: Q01DX009 (ip), vehicle: saline with Tween-80 99 % of control | dose: 400.0 mg/kg/injection, schedule: Q01DX009 (ip), vehicle: saline with Tween-80 97 % of control

O=Cc1cccc(/C=N/Nc2nnc(N/N=C/c3cccc(C=O)c3)c3ccccc23)c1
inactive: dose: 50.0 mg/kg/injection, schedule: Q01DX001 (ip), vehicle: saline 98 % of control | [17] 98 % of control | [18] 90 % of control | [19] 93 % of control

NC(=O)COc1ccccc1Cl
inactive: [16] 102 % of control | [8] 94 % of control | [9] 93 % of control

O=C(NCCCl)Nc1ccc2c(c1)Cc1ccccc1-2
inactive: [8] 108 % of control | [9] 93 % of control | [10] 101 % of control

CCN(CC)CCOC(=O)c1cc(=O)n(CCC(C)C)c2ccccc12
inactive: [3] 113 % of control | [11] 107 % of control | [20] 101 % of control
